Data reported in patent publication US9206192B2, “Trolox derivative-modified fat-soluble anti-cancer pharmaceutical compounds, preparations, preparing methods and use thereof” (CHIA TAI TIANQING PHARMACEUTICAL GROUP CO., LTD, priority 2011, dated 2015).

What was measured:
Format in all cases: cell-based
liver cancer HePG2 cells = assay: In vitro cytotoxicity test, MTT assay, liver cancer cells; details: Homo sapiens, 72 h incubation, read-out: GI50 Live cancer cells (HePG2)
Description: (§1) In this example, GI50 values (the concentration of a drug that inhibits the growth of cancer cells by 50%) of the novel anti-cancer pharmaceutical compounds of the present invention on the inhibition of human ovarian cancer cells (A2780s), colon cancer cells (HT-29), liver cancer HePG2 cells and lung cancer cells (A549) were determined by MTT assay, and further compared with that of anti-cancer drug irinotecan to evaluate in vitro cytotoxicity of the pharmaceutical compounds of the present invention.
(§2) MTT assay: Cells in logarithmic growth phase were seeded in 96-well culture plate at 100 μL/well and a cell density of 10^5/mL. After the cells were incubated for 18 h, the medium was replaced, and thereto the test compound samples with different concentrations were then added at 150 μL/well. The blank group was the wells to which only a RPMI 1640 culture medium comprising 10% fetal bovine serum was added without the addition of cells (for zero setting). The negative control group was the wells to which the equal volume of RPMI 1640 culture medium comprising 10% fetal bovine serum was added and the positive control group was the wells to which the equal volume of 13 μg/ml positive drug was added. Each group had three wells. […] After the crystal was completely dissolved, the absorbance (D) value of each well was detected on microplate reader at a wavelength of 490 nm. […]

lung cancer cells (A549) = assay: In vitro cytotoxicity test, MTT assay, lung cancer cells; details: Homo sapiens, 72 h incubation
Description: as §1
(§3) MTT assay: Cells in logarithmic growth phase were seeded in 96-well culture plate at 100 μL/well and a cell density of 10^5/mL. After the cells were incubated for 18 h, the medium was replaced, and thereto the test compound samples with different concentrations were then added at 150 μL/well. The blank group was the wells to which only a RPMI 1640 culture medium comprising 10% fetal bovine serum was added without the addition of cells (for zero setting). The negative control group was the wells to which the equal volume of RPMI 1640 culture medium comprising 10% fetal bovine serum was added and the positive control group was the wells to which the equal volume of 13 μg/ml positive drug was added. Each group had three wells. After the cells were incubated for 72 h, MTT (5 mg/mL) solution was added at 15 μL/well, and the cells were further incubated for 4 h. The supernatant was discarded, and DMSO was added at 150 μL/well. The mixture was shaken and blended for 10 min. After the crystal was completely dissolved, the absorbance (D) value of each well was detected on microplate reader at a wavelength of 490 nm. The cell growth inhibition rate was calculated according to the following equation: Cell growth inhibition rate=(1−average D value of test group/average D value of control group)×100%.

[1] = system: human ovarian cancer cells (A2780s); assay: In vitro cytotoxicity test, MTT assay, ovarian cancer cells; details: 72 h incubation, read-out: GI50 Ovarian cancer cell (A2780s)
Description: as §1, §3

[2] = system: colon cancer cells (HT-29); assay: In vitro cytotoxicity test, MTT assay, colon cancer cells; details: Homo sapiens, 72 h incubation
Description: as §1, §2

SMILES	GI50 (liver cancer HePG2 cells) [µM]	GI50 (lung cancer cells (A549)) [µM]	GI50 [1] [µM]	GI50 [2] [µM]
CCCCCCCCCCCCCCCCOC(=O)[C@@]1(C)CCc2c(C)c(OC(=O)CCC(=O)Oc3ccc4nc5c(c(CC)c4c3)Cn3c-5cc4c(c3=O)COC(=O)[C@]4(O)CC)c(C)c(C)c2O1 [MXL-003, 7-ethyl-10-hydroxycamptothecin R-(+)-6-hydroxy-2,5,7,8-tetramethylchroman-2-carboxylic acid hexadecyl ester-6-succinate]	0.164	0.169	0.0169	0.045
CCCCCCOC(=O)[C@@]1(C)CCc2c(C)c(OC(=O)CCC(=O)Oc3ccc4nc5c(c(CC)c4c3)Cn3c-5cc4c(c3=O)COC(=O)[C@]4(O)CC)c(C)c(C)c2O1 [MXL-001, 7-ethyl-10-hydroxycamptothecin R-(+)-6-hydroxy-2,5,7,8-tetramethylchroman-2-carboxylic acid n-hexyl ester-6-succinate]		4.6	0.0409	
CCc1c2c(nc3ccc(OC(=O)N4CCC(N5CCCCC5)CC4)cc13)-c1cc3c(c(=O)n1C2)COC(=O)[C@]3(O)CC [Irinotecan, irinotecan, reference compound]	9.44	0.0581	19.3	15.2
CCCCCCCCCCCCOC(=O)[C@@]1(C)CCc2c(C)c(OC(=O)CCC(=O)Oc3ccc4nc5c(c(CC)c4c3)Cn3c-5cc4c(c3=O)COC(=O)[C@]4(O)CC)c(C)c(C)c2O1 [MXL-002, 7-ethyl-10-hydroxycamptothecin R-(+)-6-hydroxy-2,5,7,8-tetramethylchroman-2-carboxylic acid dodecyl ester-6-succinate]		2.1	0.0178	
